Data: paper PMC2990605 (British Journal of Cancer, 2010)

Test: Adverse events (CTCAEv3.0), worst grade per patient regardless of relation, and laboratory parameters
Format: in vivo
Details: human, in vivo
Experimental: Toxicity was evaluated according to common toxicity criteria for adverse events (CTCAEv3.0). The MTD was defined as the dose level(s) at which at least two out of six patients developed DLT.
Toxicity assessment, haematology and clinical biochemistry were performed at baseline and weekly during the study. Physical and ECOG performance status were recorded at baseline and before the next cycle.

CC(C)C[C@@H](C(=O)N[C@H](C(=O)OC1CCCC1)c1ccccc1)[C@H](O)C(=O)NO [tosedostat]
Pollakiuria, patients with events, %: 5% | Pruritus, CTCAE grade 1, patients: 5 | Pruritus, CTCAE grade 2, patients: 0 | Pruritus, CTCAE grade 3, patients: 1 | Pruritus, CTCAE grade 4, patients: 0 | Pruritus, patients with events, %: 27% | Pulmonary embolism, CTCAE grade 1, patients: 0 | Pulmonary embolism, CTCAE grade 2, patients: 0 | Pulmonary embolism, CTCAE grade 4, patients: 0 | Pyrexia, CTCAE grade 1, patients: 4 | Pyrexia, CTCAE grade 2, patients: 2 | Pyrexia, CTCAE grade 3, patients: 0 | Pyrexia, CTCAE grade 4, patients: 0 | Pyrexia, patients with events, %: 27% | Rash, CTCAE grade 1, patients: 9 | Rash, CTCAE grade 2, patients: 1 | Rash, CTCAE grade 3, patients: 2 | Rash, CTCAE grade 4, patients: 0 | Rash, patients with events, %: 55% | Renal and urinary disorders, patients with events, %: 23% | Respiratory, thoracic and mediastinal disorders, patients with events, %: 73% | SAEs considered disease-related: 13 | SAEs reported, total number: 19 | Skin and subcutaneous tissue disorders, patients with events, %: 100% | Spinal cord compression, CTCAE grade 1, patients: 0 | Spinal cord compression, CTCAE grade 2, patients: 0 | Spinal cord compression, CTCAE grade 3, patients: 1 | Spinal cord compression, CTCAE grade 4, patients: 0 | Spinal cord compression, patients with events, %: 5% | Tumour pain, CTCAE grade 1, patients: 0 | Tumour pain, CTCAE grade 2, patients: 1 | Tumour pain, CTCAE grade 3, patients: 2 | Tumour pain, CTCAE grade 4, patients: 0 | Tumour pain, patients with events, %: 14% | Urinary tract infection, CTCAE grade 1, patients: 0 | Urinary tract infection, CTCAE grade 2, patients: 1 | Urinary tract infection, CTCAE grade 3, patients: 1 | Urinary tract infection, CTCAE grade 4, patients: 0 | Urinary tract infection, patients with events, %: 9% | Vomiting, CTCAE grade 1, patients: 3 | Vomiting, CTCAE grade 2, patients: 2 | Vomiting, CTCAE grade 3, patients: 0 | Vomiting, CTCAE grade 4, patients: 0 | Vomiting, patients with events, %: 23% | drug-related adverse event: alopecia: 95% | drug-related adverse event: fatigue: 95% | drug-related adverse event: peripheral sensory neuropathy: 59% | drug-related adverse event: rash: 55% | incidence and severity of neutropenia/leukopenia, anaemia, myalgia and nausea/vomiting: not increased relative to paclitaxel alone | nadir of median haemoglobin, WBC, neutrophils and lymphocytes in each cycle: 15 days | nadir of median platelets in each cycle: 8 days | patients with SAEs: 12 | γ-glutamyltransferase increased, CTCAE grade 1, patients: 0 | γ-glutamyltransferase increased, CTCAE grade 2, patients: 1 | γ-glutamyltransferase increased, CTCAE grade 3, patients: 1 | γ-glutamyltransferase increased, CTCAE grade 4, patients: 0 | γ-glutamyltransferase increased, patients with events, %: 9% | Alanine aminotransferase increased, CTCAE grade 1, patients (21 days): 1 | Alanine aminotransferase increased, CTCAE grade 2, patients (21 days): 2 | Alanine aminotransferase increased, CTCAE grade 3, patients (21 days): 0 | Alanine aminotransferase increased, CTCAE grade 4, patients (21 days): 0 | Alanine aminotransferase increased, patients with events, % (21 days): 14% | Alopecia, CTCAE grade 2, patients (21 days): 8 | Alopecia, CTCAE grade 3, patients (21 days): 0 | Alopecia, CTCAE grade 4, patients (21 days): 0 | Alopecia, patients with events, % (21 days): 68% | Anorexia, CTCAE grade 1, patients (21 days): 4 | Anorexia, CTCAE grade 2, patients (21 days): 0 | Anorexia, CTCAE grade 3, patients (21 days): 0 | Anorexia, CTCAE grade 4, patients (21 days): 0 | Anorexia, patients with events, % (21 days): 18% | Arthralgia, CTCAE grade 1, patients (21 days): 5 | Arthralgia, CTCAE grade 2, patients (21 days): 0 | Arthralgia, CTCAE grade 3, patients (21 days): 0 | Arthralgia, CTCAE grade 4, patients (21 days): 0 | Arthralgia, patients with events, % (21 days): 23% | Back pain, CTCAE grade 1, patients (21 days): 2 | Back pain, CTCAE grade 2, patients (21 days): 0 | Back pain, CTCAE grade 3, patients (21 days): 0 | Back pain, CTCAE grade 4, patients (21 days): 0 | Back pain, patients with events, % (21 days): 9% | Blood bilirubin, CTCAE grade 1, patients (21 days): 0 | Blood bilirubin, CTCAE grade 2, patients (21 days): 0 | Blood bilirubin, CTCAE grade 3, patients (21 days): 0 | Blood bilirubin, CTCAE grade 4, patients (21 days): 0 | Blood bilirubin, patients with events, % (21 days): 0% | Bronchitis, CTCAE grade 1, patients (21 days): 0 | Bronchitis, CTCAE grade 2, patients (21 days): 0 | Bronchitis, CTCAE grade 3, patients (21 days): 0 | Bronchitis, CTCAE grade 4, patients (21 days): 0 | Bronchitis, patients with events, % (21 days): 0% | Constipation, CTCAE grade 1, patients (21 days): 3 | Constipation, CTCAE grade 2, patients (21 days): 1 | Constipation, CTCAE grade 3, patients (21 days): 0 | Constipation, CTCAE grade 4, patients (21 days): 0 | Constipation, patients with events, % (21 days): 18% | Cough, CTCAE grade 1, patients (21 days): 5 | Cough, CTCAE grade 2, patients (21 days): 0 | Cough, CTCAE grade 3, patients (21 days): 0 | Cough, CTCAE grade 4, patients (21 days): 0 | Cough, patients with events, % (21 days): 23% | Cystitis, CTCAE grade 1, patients (21 days): 0 | Cystitis, CTCAE grade 2, patients (21 days): 0 | Cystitis, CTCAE grade 3, patients (21 days): 0 | Cystitis, CTCAE grade 4, patients (21 days): 0 | Cystitis, patients with events, % (21 days): 0% | Dehydration, CTCAE grade 1, patients (21 days): 0 | Dehydration, CTCAE grade 2, patients (21 days): 0 | Dehydration, CTCAE grade 3, patients (21 days): 1 | Dehydration, CTCAE grade 4, patients (21 days): 0 | Dehydration, patients with events, % (21 days): 5% | Diabetes mellitus, CTCAE grade 1, patients (21 days): 0 | Diabetes mellitus, CTCAE grade 2, patients (21 days): 0 | Diabetes mellitus, CTCAE grade 3, patients (21 days): 1 | Diabetes mellitus, CTCAE grade 4, patients (21 days): 0 | Diabetes mellitus, patients with events, % (21 days): 5% | Diarrhoea, CTCAE grade 1, patients (21 days): 2 | Diarrhoea, CTCAE grade 2, patients (21 days): 0 | Diarrhoea, CTCAE grade 3, patients (21 days): 0 | Diarrhoea, CTCAE grade 4, patients (21 days): 0 | Diarrhoea, patients with events, % (21 days): 9% | Dizziness, CTCAE grade 1, patients (21 days): 4 | Dizziness, CTCAE grade 2, patients (21 days): 1 | Dizziness, CTCAE grade 3, patients (21 days): 0 | Dizziness, CTCAE grade 4, patients (21 days): 0 | Dizziness, patients with events, % (21 days): 23% | Drug hypersensitivity, CTCAE grade 1, patients (21 days): 0 | Drug hypersensitivity, CTCAE grade 2, patients (21 days): 0 | Drug hypersensitivity, CTCAE grade 3, patients (21 days): 0 | Drug hypersensitivity, CTCAE grade 4, patients (21 days): 0 | Drug hypersensitivity, patients with events, % (21 days): 0% | Dry skin, CTCAE grade 1, patients (21 days): 0 | Dry skin, CTCAE grade 2, patients (21 days): 0 | Dry skin, CTCAE grade 3, patients (21 days): 1 | Dry skin, CTCAE grade 4, patients (21 days): 0 | Dry skin, patients with events, % (21 days): 5%
